Results: patent publication US4695569A, “Bicyclic heterocyclyl containing N-(bicyclic heterocyclyl)-4-piperidinamines” (Janssen Pharmaceutica N.V., priority 1987, dated 1987)

tested on: compound 48/80-induced lethality; assay: Protection of rats from compound 48/80-induced lethality; type: in vivo, rat (male, inbred Wistar strain); settings: Rattus norvegicus, 4 h, read-out: Compound 48/80 lethality test in rats-ED50
Procedure: Protection of rats from compound 48/80-induced lethality
The protection from compound 48/80-induced lethal circulatory collapse appears to be a simple way of evaluating quantitatively the antihistaminic activity of test compounds. Male rats of an inbred Wistar strain, weighing 240-260 g were used in the experiment. After overnight starvation the rats were transferred to conditioned laboratories (temp.=21±1° C., relative humidity=65±5%).
The rats were treated subcutaneously or orally with a test compound or with the solvent (NaCl solution, 0.9%). […] Survival after 4 hours is therefore considered to be a safe criterion of a protective effect of drug administration.
The ED50 -values of the compounds of formula (I) are listed in the first column of table 1. Said ED50 -values are the values in mg/kg body weight at which the tested compounds protect 50% of the tested animals against compound 48/80-induced lethality.

| Compound | ED50 |
| --- | --- |
| O=c1[nH]c2ccccc2c(=O)n1CCN1CCC(Nc2nc3cccnc3n2Cc2ccco2)CC1 [Compound 26] | 0.08 mg/kg |
| Cc1ccc2nc(C)c(CCN3CCC(Nc4nc5cccnc5n4Cc4ccco4)CC3)c(=O)n2c1 [Compound 20] | 0.04 mg/kg |
| Fc1ccc(Cn2c(NC3CCN(Cc4cn5ccccc5n4)CC3)nc3ccccc32)cc1 [Compound 41] | 0.16 mg/kg |
| Fc1ccc(Cn2c(NC3CCN(CCNc4nc5cccnc5s4)CC3)nc3ccccc32)cc1 [Compound 103, N-[2-[4-[[1-[(4-fluorophenyl)methyl]-1H-benzimidazol-2-yl]amino]-1-piperidinyl]ethyl]thiazolo[5,4-b]pyridin-2-amine] | 0.16 mg/kg |
| Cc1nc2ccc(Br)cn2c(=O)c1CCN1CCC(Nc2nc3cccnc3n2Cc2ccco2)CC1 [Compound 76] | 0.08 mg/kg |
| Cn1c(NCCN2CCC(Nc3nc4ccccc4n3Cc3ccc(F)cc3)CC2)nc2cnccc21.O [Compound 108, N-[2-[4-[[1-[(4-fluorophenyl)methyl]-1H-benzimidazol-2-yl]amino]-1-piperidinyl]ethyl]-1-methyl-1H-imidazo[4,5-c]pyridin-2-amine monohydrate] | 0.04 mg/kg |
| c1csc(Cn2c(NC3CCN(CCNc4nc5cnccc5[nH]4)CC3)nc3ccccc32)c1 [Compound 117] | 0.02 mg/kg |
| Fc1ccc(Cn2c(NC3CCN(CCn4c(=S)[nH]c5ccccc54)CC3)nc3ccccc32)cc1 [Compound 142, 1-[2-[4-[[1-[(4-fluorophenyl)methyl]-1H-benzimidazole-2-yl]amino]-1-piperidinyl]ethyl]-1,3-dihydro-2H-benzimidazole-2-thione] | 0.16 mg/kg |
| c1ccc(Cn2c(NC3CCN(CCNc4nc5cnccc5[nH]4)CC3)nc3ccccc32)nc1 [Compound 115] | 0.02 mg/kg |
| Cc1nc2n(c(=O)c1CCN1CCC(Nc3nc4ccccc4n3Cc3ccco3)CC1)CCCS2 [Compound 13] | 0.02 mg/kg |
| c1ccc(Cn2c(NC3CCN(CCNc4nc5cnccc5[nH]4)CC3)nc3cccnc32)nc1 [Compound 113] | 0.04 mg/kg |
| Cc1nc2n(c(=O)c1CCN1CCC(Nc3nc4ccccc4n3Cc3ccco3)CC1)CCCC2 [Compound 44] | 0.16 mg/kg |
| Cc1nc2n(c(=O)c1CCN1CCC(Nc3nc4cccnc4n3Cc3ccco3)CC1)CCCS2 [Compound 14] | 0.02 mg/kg |
| Cc1nc2n(c(=O)c1CCN1CCC(Nc3nc4ccccc4n3Cc3ccc(F)cc3)CC1)CCCC2 [Compound 45] | 0.08 mg/kg |
| O=c1[nH]c2ccccc2c(=O)n1CCCN1CCC(Nc2nc3cccnc3n2Cc2ccc(F)cc2)CC1 [Compound 37] | 0.16 mg/kg |
| Cc1nc2n(c(=O)c1CCN1CCC(Nc3nc4ccccc4n3Cc3ccc(Cl)cc3)CC1)CCCC2 [Compound 69] | 0.16 mg/kg |
| O=c1[nH]c2c(Cl)ncnc2n1CCN1CCC(Nc2nc3ccccc3n2Cc2ccc(F)cc2)CC1 [Compound 144, 6-chloro-9-[2-[4-[[1-[(4-fluorophenyl)methyl]-1H-benzimidazol-2-yl]amino]-1-piperidinyl]ethyl]-7,9-dihydro-8H-purin-8-one] | 0.08 mg/kg |
| Cn1c(=O)n(CCN2CCC(Nc3nc4cccnc4n3Cc3ccc(F)cc3)CC2)c(=O)c2ccccc21 [Compound 36] | 0.16 mg/kg |
| O=c1c2ccccc2[nH]c(=S)n1CCN1CCC(Nc2nc3ccccc3n2Cc2ccco2)CC1 [Compound 132, 3-[2-[4-[[1-(2-furanylmethyl)-1H-benzimidazol-2-yl]amino]-1-piperidinyl]ethyl]-2,3-dihydro-2-thioxo-4(1H)-quinazolinone] | 0.16 mg/kg |
| Cc1nc2ccccn2c(=O)c1CCN1CCC(Nc2nc3ccncc3n2Cc2ccc(F)cc2)CC1 [Compound 79] | 0.16 mg/kg |

| Compound | ED50 |
| --- | --- |
| Fc1ccc(Cn2c(NC3CCN(CCc4cn5cccnc5n4)CC3)nc3ccccc32)cc1 [Compound 151, 1-[(4-fluorophenyl)methyl]-N-[1-[2-(imidazo[3,2-a]pyrimidin-2-yl)ethyl]-4-piperidinyl]-1H-benzimidazol-2-amine] | 0.08 mg/kg |
| Cn1c(=O)c2c(ncn2CCN2CCC(Nc3nc4cccnc4n3Cc3ccco3)CC2)n(C)c1=O [Compound 42] | 0.16 mg/kg |
| Cc1nc2n(c(=O)c1CCN1CCC(Nc3nc4cccnc4n3Cc3ccc(F)cc3)CC1)CCCS2 [Compound 16] | 0.16 mg/kg |
| Cn1cnc2c(NCCN3CCC(Nc4nc5cc(O)ccc5n4Cc4ccc(F)cc4)CC3)ncnc21 [Compound 102] | 0.08 mg/kg |
| O=c1[nH]c2ccccc2c(=O)n1CCCCN1CCC(Nc2nc3ccccc3n2Cc2ccco2)CC1 [Compound 128, 3-[4-[4-[[1-(2-furanylmethyl)-1H-benzimidazol-2-yl]amino]-1-piperidinyl]-butyl]-2,4(1H,3H)-quinazolinedione] | 0.08 mg/kg |
| Cn1c(=O)n(CCN2CCC(Nc3nc4cccnc4n3Cc3ccco3)CC2)c(=O)c2ccccc21 [Compound 35] | 0.02 mg/kg |
| O=c1[nH]c2ccccc2c(=O)n1CCCN1CCC(Nc2nc3cccnc3n2Cc2ccco2)CC1 [Compound 32] | 0.04 mg/kg |
| O=c1[nH]c2ccccc2c(=O)n1CCN1CCC(Nc2nc3cccnc3n2Cc2ccc(F)cc2)CC1 [Compound 25] | 0.16 mg/kg |
| Fc1ccc(Cn2c(NC3CCN(CCOc4nc5cccnc5s4)CC3)nc3ccccc32)cc1 [Compound 107, 1-[(4-fluorophenyl)methyl]-N-[1-[2-[(thiazolo[5,4-b]pyridin-2-yl)oxy]ethyl]-4-piperidinyl]-1H-benzimidazol-2-amine] | 0.16 mg/kg |
| Cc1nc2n(c(=O)c1CCN1CCC(Nc3nc4ccccc4n3Cc3ccccn3)CC1)CCCC2 [Compound 57] | 0.16 mg/kg |
| Cn1c(=O)c2c(ncn2CCN2CCC(Nc3nc4cccnc4n3Cc3ccc(F)cc3)CC2)n(C)c1=O [Compound 43] | 0.16 mg/kg |
| Cn1cnc2c(NCCN3CCC(Nc4nc5ccccc5n4Cc4ccccc4)CC3)ncnc21 [Compound 100] | 0.16 mg/kg |
| Cc1nc2c(NCCN3CCC(Nc4nc5ccccc5n4Cc4ccc(F)cc4)CC3)ncnc2n1C [Compound 96] | 0.16 mg/kg |
| Cc1nc2n(c(=O)c1CCN1CCC(Nc3nc4cccnc4n3Cc3ccco3)CC1)CCS2 [Compound 48] | 0.08 mg/kg |
| Cc1nc2n(c(=O)c1CCN1CCC(Nc3nc4cccnc4n3Cc3ccco3)CC1)C(C)CCC2 (stereo not drawn) [Compound 54] | 0.31 mg/kg |
| Cc1nc2ccccn2c(=O)c1CCN1CCC(Nc2nc3cccnc3n2Cc2ccc(F)cc2)CC1.Cl.Cl [Compound 22, 3-[2-[4-[[3-[(4-fluorophenyl)methyl]-3H-imidazo[4,5-b]-pyridin-2-yl]amino]-1-piperidinyl]ethyl]-2-methyl-4H-pyrido[1,2-a]pyrimidin-4-one dihydrochloride] | 0.16 mg/kg |
| O=c1[nH]c2ccccc2c(=O)n1CCCN1CCC(Nc2nc3ccccc3n2Cc2ccco2)CC1 [Compound 30] | 0.16 mg/kg |
| Cc1nc2cccc(C)n2c(=O)c1CCN1CCC(Nc2nc3cccnc3n2Cc2ccco2)CC1 [Compound 75] | 0.01 mg/kg |
| Cc1nc2sccn2c(=O)c1CCN1CCC(Nc2nc3ccccc3n2Cc2ccc(F)cc2)CC1 [Compound 27] | 0.08 mg/kg |
| Cc1nc2ccccn2c(=O)c1CCN1CCC(Nc2nc3ccccc3n2Cc2cnccn2)CC1 [Compound 68, 2-methyl-3-[2-[4-[[1-(2-pyrazinylmethyl)-1H-benzimidazol-2-yl]amino]-1-piperidinyl]ethyl]-4H-pyrido[1,2-a]pyrimidin-4-one] | 0.08 mg/kg |

tested on: serotonin; assay: Antagonistic activity on the effects of serotonin in the gastric lesion test (lesions induced by compound 48/80); type: in vivo, rat (male, Wistar inbred strain); settings: Rattus norvegicus, po, 4 h, read-out: gastric lesion test ED50 (distension of the stomach and lesions in the glandular area completely absent in 50% of rats)
Excerpt: The compounds of formula (I) and the pharmaceutically acceptable acid addition salts thereof are also potent serotonin-antagonists. The potency of the subject compounds as serotonin-antagonists is clearly evidenced by the results obtained in the following tests wherein the antagonistic activity of the subject compounds on the effect of serotonin is examined.
Antagonistic activity on the effects of serotonin in the gastric lesion test
Comound 48/80 (a mixture of oligomers obtained by condensation of 4-methoxy-N-methylbenzeneethanamine and formaldehyde) is a potent releaser of vasoactive amines from endogenous stores such as, for example, histamine and serotonin. […] The shock, followed by dead, can be avoided if the rats are pretreated with a classical H 1 antagonist.
Male rats of a Wistar inbred strain, weighing 220-250 g, were starved overnight, water being available ad libitum. The test compounds were administered orally as a solution or as a suspension in aqueous medium. A control rat and a "blank" rat received the test compound. One hour later 5-[4-(diphenylmethyl)-1-piperazinylmethyl]-1-methyl-1H-benzimidazole-2-methanol was administered subcutaneously to all rats at the dose of 2.5 mg/kg.
Four hours after the intravenous injection of compound 48/80, the rats were decapitated and the stomachs were removed. Subsequently the stomachs ere inspected for distension and contents (blood, fluid, food) and thoroughly rinsed. The macroscopic lesions were scored from 0 to +++, 0 corresponding to complete absence of visible lesions and the highest score corresponding to reddish rough patches covering more than half the glandular area.

| Compound | ED50 |
| --- | --- |
| c1ccc(Cn2c(NC3CCN(CCNc4nc5cnccc5[nH]4)CC3)nc3ccccc32)nc1 [Compound 115] | 0.16 mg/kg |

same assay, conditions: Rattus norvegicus, po, 4 h; read-out: gastric lesion test ED50 (distension of the stomach and lesions in the glandular area completely absent in 50% of rats)

| Compound | ED50 |
| --- | --- |
| Cc1ccc2nc(C)c(CCN3CCC(Nc4nc5cccnc5n4Cc4ccco4)CC3)c(=O)n2c1 [Compound 20] | 0.63 mg/kg |
| Fc1ccc(Cn2c(NC3CCN(Cc4cn5ccccc5n4)CC3)nc3ccccc32)cc1 [Compound 41] | 0.63 mg/kg |
| Fc1ccc(Cn2c(NC3CCN(CCNc4nc5cccnc5s4)CC3)nc3ccccc32)cc1 [Compound 103, N-[2-[4-[[1-[(4-fluorophenyl)methyl]-1H-benzimidazol-2-yl]amino]-1-piperidinyl]ethyl]thiazolo[5,4-b]pyridin-2-amine] | 0.63 mg/kg |
| Cn1c(NCCN2CCC(Nc3nc4ccccc4n3Cc3ccc(F)cc3)CC2)nc2cnccc21.O [Compound 108, N-[2-[4-[[1-[(4-fluorophenyl)methyl]-1H-benzimidazol-2-yl]amino]-1-piperidinyl]ethyl]-1-methyl-1H-imidazo[4,5-c]pyridin-2-amine monohydrate] | 0.16 mg/kg |
| c1csc(Cn2c(NC3CCN(CCNc4nc5cnccc5[nH]4)CC3)nc3ccccc32)c1 [Compound 117] | 0.31 mg/kg |
| Fc1ccc(Cn2c(NC3CCN(CCn4c(=S)[nH]c5ccccc54)CC3)nc3ccccc32)cc1 [Compound 142, 1-[2-[4-[[1-[(4-fluorophenyl)methyl]-1H-benzimidazole-2-yl]amino]-1-piperidinyl]ethyl]-1,3-dihydro-2H-benzimidazole-2-thione] | 0.63 mg/kg |
| Cc1nc2n(c(=O)c1CCN1CCC(Nc3nc4ccccc4n3Cc3ccco3)CC1)CCCS2 [Compound 13] | 0.08 mg/kg |
